Test results taken from ChEMBL document CHEMBL1125038, “Synthesis and antiinflammatory activity of cis- and trans-6,6a,7,8,9,10,10a,11-octahydro-11-oxodibenzo[b,e]thiepinacetic and -oxepinacetic acids” (J Med Chem, 1990).
Values joined by “and” are separate entries in the source; they are usually repeats but may differ in a detail not shown here. Equal entries are not always repeated.

Assays:
Rattus norvegicus [1] = test: Inhibition of carrageenan hind paw edema in rats after oral administration of a dose of 5 mg/kg; format: functional
Rattus norvegicus [2] = test: Antiinflammatory activity was determined against rat carrageenan hind paw edema, after oral administration; format: functional
Rattus norvegicus [3] = organism: Rattus norvegicus; test: The compound was tested for gastric ulcerogenicity in rats; ca. 57; format: functional, Stomach
[4] = Safety index is the ratio of UD50 to ED50 in carrageenan hind paw edema; ca. 25; format: toxicity; conditions: read-out: Safety index
Rattus norvegicus [5] = organism: Rattus norvegicus; test: Analgesic activity was determined by measuring the dose required to inhibit acetic acid induced writhing; format: functional
[6] = The compound was tested for acute toxicity in mice after oral administration; format: organism-based; conditions: mouse, in vivo
Rattus norvegicus [7] = organism: Rattus norvegicus; test: The compound was tested for gastric ulcerogenicity in rats; format: functional, Stomach
[8] = Safety index is the ratio of UD50 to ED50 in carrageenan hind paw edema; format: toxicity; conditions: read-out: Safety index
Rattus norvegicus [9] = test: Antiinflammatory activity was determined against rats carrageenan hind paw edema after oral administration; format: functional
Rattus norvegicus [10] = test: Antiinflammatory activity was determined against rats carrageenan hind paw edema, after oral administration; ca. 40; format: functional
[11] = The compound was tested for acute toxicity in mice after oral administration; ca. 200; format: organism-based; conditions: mouse, in vivo
Rattus norvegicus [12] = organism: Rattus norvegicus; test: The compound was tested for gastric ulcerogenicity in rats; ca. 30; format: functional, Stomach
[13] = Safety index is the ratio of UD50 to ED50 in carrageenan hind paw edema; ca. 20; format: toxicity; conditions: read-out: Safety index
Rattus norvegicus [14] = test: Antiinflammatory activity was determined against rat carrageenan hind paw edema after oral administration of a dose of 40 mg/kg
Rattus norvegicus [15] = organism: Rattus norvegicus; test: The compound was tested for gastric ulcerogenicity in rats; ca. 8; format: functional, Stomach

SMILES	inhibition in vivo at 5 mg/kg (Rattus norvegicus [1])	ED50 (Rattus norvegicus [9])	further results
CC(C(=O)OCc1ccccc1)c1ccc2c(c1)SCC1CCCCC1C2=O (centres undefined)	25.6%	–	–
CC(C(N)=O)c1ccc2c(c1)SCC1CCCCC1C2=O (centres undefined)	30.5%	–	–
CCCCCCOC(=O)C(C)c1ccc2c(c1)SCC1CCCCC1C2=O (centres undefined)	28.3%	–	–
CC(C(=O)OCC(=O)c1ccccc1)c1ccc2c(c1)SCC1CCCCC1C2=O (centres undefined)	26.6%	–	–
CC(C(=O)N(C)C)c1ccc2c(c1)SCC1CCCCC1C2=O (centres undefined)	2.7%	–	–
CCCCCOC(=O)C(C)c1ccc2c(c1)SCC1CCCCC1C2=O (centres undefined)	22.1%	–	–
CC(C)OC(=O)C(C)c1ccc2c(c1)SCC1CCCCC1C2=O (centres undefined)	25.6%	–	–
CC(C(=O)OC1CCCCC1)c1ccc2c(c1)SCC1CCCCC1C2=O (centres undefined)	15.6%	–	–
CCOCCOC(=O)C(C)c1ccc2c(c1)SCC1CCCCC1C2=O (centres undefined)	34.6%	–	–
CC(C(=O)OCCOCCO)c1ccc2c(c1)SCC1CCCCC1C2=O (centres undefined)	28.1%	–	–
CC(C)COC(=O)C(C)c1ccc2c(c1)SCC1CCCCC1C2=O (centres undefined)	29.3%	–	–
CCOC(=O)C(C)c1ccc2c(c1)SCC1CCCCC1C2=O (centres undefined)	38.3%	–	ED50 (Rattus norvegicus [2]; Rattus norvegicus, po, read-out: ED50): 2.24 mg/kg; UD50 (Rattus norvegicus [3]): 57 mg/kg; selectivity ratio [4]: 25; ED50 (Rattus norvegicus [5]): 0.31 mg/kg
CC(C(=O)Oc1ccccc1)c1ccc2c(c1)SCC1CCCCC1C2=O (centres undefined)	22%	–	–
CC(C(=O)NCc1ccccc1)c1ccc2c(c1)SCC1CCCCC1C2=O (centres undefined)	-5.5%	–	–
CC(C(=O)N1CCCCC1)c1ccc2c(c1)SCC1CCCCC1C2=O (centres undefined)	5.3%	–	–
CC(C(=O)NCCO)c1ccc2c(c1)SCC1CCCCC1C2=O (centres undefined)	22.3%	–	–
CC(C(=O)OCc1cccnc1)c1ccc2c(c1)SCC1CCCCC1C2=O (centres undefined)	29.9%	–	–
CC(C(=O)NO)c1ccc2c(c1)SCC1CCCCC1C2=O (centres undefined)	29.9%	–	–
CCCOC(=O)C(C)c1ccc2c(c1)SCC1CCCCC1C2=O (centres undefined)	25.4%	–	–
CC(C(=O)OC/C=C/c1ccccc1)c1ccc2c(c1)SCC1CCCCC1C2=O (centres undefined)	20.3%	–	–
CC(C(=O)OCCN1CCOCC1)c1ccc2c(c1)SCC1CCCCC1C2=O (centres undefined)	22.2%	–	–
CC(C(=O)OCCc1ccccn1)c1ccc2c(c1)SCC1CCCCC1C2=O (centres undefined)	25.5%	–	–
CNC(=O)C(C)c1ccc2c(c1)SCC1CCCCC1C2=O (centres undefined)	14.6%	–	–
CC(C(=O)N1CCN(C)CC1)c1ccc2c(c1)SCC1CCCCC1C2=O (centres undefined)	5.3%	–	–
CC(C(=O)NCC(=O)O)c1ccc2c(c1)SCC1CCCCC1C2=O (centres undefined)	29.7%	–	–
CC(C(=O)OCc1ccccn1)c1ccc2c(c1)SCC1CCCCC1C2=O (centres undefined)	30.6%	–	–

SMILES	inhibition in vivo at 5 mg/kg (Rattus norvegicus [1])	ED50 (Rattus norvegicus [9])	further results
CC(C(=O)N1CCOCC1)c1ccc2c(c1)SCC1CCCCC1C2=O (centres undefined)	7.1%	–	–
CCCCOC(=O)C(C)c1ccc2c(c1)SCC1CCCCC1C2=O (centres undefined)	26%	–	–
CC(C(=O)OCCc1ccccc1)c1ccc2c(c1)SCC1CCCCC1C2=O (centres undefined)	39.1%	–	LD50 [6]: 644 mg/kg; ED50 (Rattus norvegicus [2]): 3.53 mg/kg and 1.5 mg/kg; UD50 (Rattus norvegicus [7]): >124 mg/kg; selectivity ratio [8]: > 35
CC(C(=O)OCCCc1ccccc1)c1ccc2c(c1)SCC1CCCCC1C2=O (centres undefined)	26%	–	–
CCOC(=O)COC(=O)C(C)c1ccc2c(c1)SCC1CCCCC1C2=O (centres undefined)	20.2%	–	–
COC(=O)C(C)c1ccc2c(c1)SCC1CCCCC1C2=O (centres undefined)	21.6%	–	–
C=CCOC(=O)C(C)c1ccc2c(c1)SCC1CCCCC1C2=O (centres undefined)	33.5%	–	–
O=C(O)Cc1ccc2c(c1)C(=O)[C@H]1CCCC[C@@H]1CO2 (relative stereo)	–	> 40 mg/kg	–
O=C(O)Cc1ccc2c(c1)OC[C@H]1CCCC[C@H]1C2=O (relative stereo)	–	> 40 mg/kg	–
O=C(O)Cc1ccc2c(c1)C(=O)[C@@H]1CCCC[C@@H]1CS2 (relative stereo)	–	> 40 mg/kg	–
O=C(O)Cc1ccc2c(c1)SC[C@H]1CCCC[C@@H]1C2=O (relative stereo)	–	3.24 mg/kg	–
O=C(O)Cc1ccc2c(c1)C(=O)[C@@H]1CCCC[C@@H]1CO2 (relative stereo)	–	> 40 mg/kg	–
O=C(O)Cc1ccc2c(c1)C(=O)[C@H]1CCCC[C@@H]1CS2 (relative stereo)	–	> 40 mg/kg	–
O=C(O)Cc1ccc2c(c1)SC[C@H]1CCCC[C@H]1C2=O (relative stereo)	–	> 40 mg/kg	–
CC(C(=O)O)c1ccc2c(c1)C(=O)[C@H]1CCCC[C@@H]1CS2 (relative stereo)	–	–	ED50 (Rattus norvegicus [10]): 40 mg/kg
O=C(O)Cc1ccc2c(c1)OC[C@H]1CCCC[C@@H]1C2=O (relative stereo)	–	22.1 mg/kg	–
CC(C(=O)O)c1ccc2c(c1)OC[C@H]1CCCC[C@@H]1C2=O (relative stereo)	–	1.52 mg/kg	–
CC(C(=O)O)c1ccc2c(c1)OC[C@H]1CCCC[C@H]1C2=O (relative stereo)	–	> 40 mg/kg	–
CC(C(=O)O)c1ccc2c(c1)C(=O)[C@@H]1CCCC[C@@H]1CS2 (relative stereo)	–	> 40 mg/kg	–
CC(C(=O)O)c1ccc2c(c1)C(=O)[C@@H]1CCCC[C@@H]1CO2 (relative stereo)	–	> 40 mg/kg	–
CC(C(=O)O)c1ccc2c(c1)SC[C@H]1CCCC[C@@H]1C2=O (relative stereo)	–	1.53 mg/kg	LD50 [11]: 200 mg/kg; UD50 (Rattus norvegicus [12]): 30 mg/kg; selectivity ratio [13]: 20; ED50 (Rattus norvegicus [5]): 0.39 mg/kg
CC(C(=O)O)c1ccc2c(c1)C(=O)[C@H]1CCCC[C@@H]1CO2 (relative stereo)	–	> 40 mg/kg	–
CC(C(=O)O)c1ccc2c(c1)SC[C@H]1CCCC[C@H]1C2=O (relative stereo)	–	> 40 mg/kg	–
CC(C(=O)O)c1ccc2c(c1)SC[C@H]1CCCC[C@@H]1C2=O (relative stereo; form 1)	–	–	ED50 (Rattus norvegicus [14]): 1.89 mg/kg
CC(C(=O)O)c1ccc2c(c1)SC[C@H]1CCCC[C@@H]1C2=O (relative stereo; form 2)	–	–	ED50 (Rattus norvegicus [14]): 37.1 mg/kg
COc1ccc2c(c1)c(CC(=O)O)c(C)n2C(=O)c1ccc(Cl)cc1 [INDOMETHACIN]	36.3%	3.3 mg/kg	LD50 [6]: 23 mg/kg; UD50 (Rattus norvegicus [15]): 8 mg/kg; selectivity ratio [8]: 2.4; ED50 (Rattus norvegicus [5]): 0.44 mg/kg
